The subject of one test is isolated adipocytes. The test can be described thus: Measurement of glucose uptake activity in isolated rat adipocytes (2-[14C]-deoxy-D-glucose). The test is classed as cell-based. The settings on record: Adipocyte, glucose uptake of insulin (100 nM) = 100%. The protocol:
A male Wistar rat was decapitated and exsanguinated, and then a paratesticular adipose tissue was resected therefrom after laparotomy. The tissue was cut in a KRH (Krebs-Ringer HEPES: 130 mM NaCl, 4.7 mM KCl, 1.2 mM KH2PO4, 1.2 mM MgSO4, 1 mM CaCl2, 25 mM HEPES) containing a BSA (bovine serum albumin), a collagenase (type I) was added thereto, and the resultant was subjected to a digestive treatment for about 40 minutes to obtain isolated adipocytes. The buffer was replaced to remove the collagenase, and a 2% BSA/KRH solution was added thereto, whereby the adipocytes were floated again to obtain a adipocytes suspension.
The glucose uptake activity of a test substance compound was evaluated in accordance with Non-Patent Document 14: Simpson et al., Annual Review of Biochemistry, 55, 1059, (1986). Thus, 200 μl of the adipocytes suspension was dispensed into each polystyrene test tube, 100 μl of a solution containing the test substance compound was added thereto, and the test tube was shaken and incubated at 37° C. for 30 minutes. The glucose uptake activity was evaluated by measuring the amount of 2-[^14C(U)]-deoxy-D-glucose uptaken per unit time. Thus, the 2-[^14C(U)]-deoxy-D-glucose was added to the preincubated adipocytes suspension at the final concentration of 0.5 μCi/sample, and after 5 minutes, cytochalasin B was added thereto at the final concentration of 10 μM to stop the glucose uptake. Dinonyl phthalate was superposed over the solution, the resultant was centrifuged to separate the fat cells from the buffer, and the amount of the 2-[^14C(U)]-deoxy-D-glucose contained in the fat cell layer was measured by a liquid scintillation counter, whereby the uptaken glucose amount was determined. The glucose uptake of insulin (100 nM) was evaluated in the same manner and considered to be 100%, and thus the EC50 value of each compound was obtained.

In the next test the test system is HLF cell membrane. The test can be described thus: Binding assay of 3H-labeled Compound 1 using HLF cell membrane. The settings on record: FIG. 4. More on the design: species or system human. The protocol: A cell membrane of a human liver-derived HLF cell was prepared as follows. HLF cells were approximately confluently cultured in a Dulbecco MEM medium containing 10% FCS in a cell culture dish having a diameter of 15 cm. The HLF cells cultured in 30 dishes were scraped by a cell scraper in the presence of an HMEE buffer (20 mM HEPES-KOH, 1 mM EDTA, 1 mM EGTA, and 2 mM MgCl2) to obtain about 30 ml of a cell suspension. The suspension was homogenized using a TEFLON (registered trademark) homogenizer (ice temperature, 1000 rpm, 15 stroke) and centrifuged at a low rate (1500 rpm, 5 minutes). […]
The binding assay of the ^3H-labeled Compound 1 on thus obtained cell membrane was carried out as follows. […] The filter plate was well washed with a TBS (20 mM Tris-HCl, 0.15 M NaCl, pH 7.4) containing 0.05% Twee-20 and sufficiently dried, 30 μl of a liquid scintillator (Microscinti 0, Packard) was added to the filter plate, and the ^3H count was measured by Topcount (Packard). […]
The inhibitory activity of each of the probe molecule compounds synthesized in Examples 2 and 7 to 10 against the binding of the ^3H-labeled Compound 1 to the HLF cell membrane was measured by the method described in Example 14 to confirm whether the probe compound could be bound to the binding protein like Compound 1. […]

The next test has as its target T1, Gβ1γ2-Myc (Homo sapiens, UniProt P62873).
T1 construct: made in house; host or cells: Sf21 insect cells (baculovirus), unpurified Triton X-100 extract
As to the kind of experiment: Gβ binding ability using Gβ-expressing insect cell extract solution (PD10 method). The settings on record: binding strength Compound 1>Compound 3>Compound 6, FIG. 8. The protocol:
The PD10 method was carried out as follows. To a microtube were added 250 μl of an RBA buffer, 100 μl of an RBA buffer containing 0 or 500 μM of the unlabeled Compound 1, 100 μl of the above extract solution, and 50 μl of an RBA buffer containing 2.5 μM of the ^3H-labeled Compound 1 successively, and the resultant mixture was stirred and left at room temperature for 1 hour. The entire reaction solution (0.5 ml) was added to a PD10 column sufficiently substituted with the RBA buffer, 2 ml of the RBA buffer was passed through the PD10 column, and thereafter further eluate by 1.5 ml of the RBA buffer was collected as a high-molecular fraction containing the protein, 15 ml of a liquid scintillator was added thereto, and the amount of the ^3H-labeled Compound 1 contained in the high-molecular fraction was measured by a scintillation counter. The count of the sample added with the unlabeled Compound 1 at the final concentration of 100 μM was considered to correspond to the nonspecific binding, the difference between the nonspecific binding count and the count of the sample not added with the unlabeled Compound 1 was considered to correspond to the specific binding, and thus the amount of the binding protein contained in the extract solution was evaluated.
Using the frozen insect cell Sf21 expressing the Gβ1, Myc-Gγ2, and Gαi1-His prepared in Example 19 (8), 10^7 cells were melted and suspended in 1.3 ml of an RBA buffer containing 1% Triton X-100 (75 mM Tris-HCl, 12.5 mM MgCl2, 2 mM EDTA, pH 7.4). […]
The inhibitory activity against the binding of the ^3H-labeled Compound 1 to the Gβ1γ2-Myc was considered to correspond to the activity of the compounds for binding to the Gβ1γ2-Myc. Thus, the activity of each of Compounds 1, 3, and 6 for binding to the Gβ1γ2-Myc was measured using the above extract solution. The activity of the ^3H-labeled Compound 1 for binding to the protein contained in the extract solution was measured by the PD10 method described in Example 15 (1). […]

For test [1], the system named is Compound 6-induced Akt phosphorylation in differentiated 3T3L1 cell. As to the kind of experiment: Inhibition of Compound 6-induced Akt phosphorylation in differentiated 3T3L1 adipocytes. The test is classed as cell-based. The settings on record: 15 minutes pretreatment, FIG. 12. The protocol: The inhibitory activity of the inhibitor TGX-115 specific to the phosphoinositide 3-kinase (PI3-kinase) β and δ against Compound 6-induced Akt phosphorylation was measured by using a differentiated 3T3L1 cell converted to a adipocyte as follows. […] The differentiated 3T3L1 cells were seeded in a Dulbecco MEM medium containing 10% FCS in a 96-well plate (Collagen type I coated plate, IWAKI, Product No. 4860-010) at a ratio of 4×10^4 cells/well, cultured at 37° C. for about 16 hours in the presence of 5% CO2 to achieve sufficient attachment, and the medium was removed by suction. […] Then, 10 μl of a 0.1% BSA/Dulbecco MEM medium containing 3 mM of Compound 6 was added thereto, and a treatment was carried out at 37° C. for 10 minutes in the presence of 5% CO2.

T1 sequence (P62873 whole entry): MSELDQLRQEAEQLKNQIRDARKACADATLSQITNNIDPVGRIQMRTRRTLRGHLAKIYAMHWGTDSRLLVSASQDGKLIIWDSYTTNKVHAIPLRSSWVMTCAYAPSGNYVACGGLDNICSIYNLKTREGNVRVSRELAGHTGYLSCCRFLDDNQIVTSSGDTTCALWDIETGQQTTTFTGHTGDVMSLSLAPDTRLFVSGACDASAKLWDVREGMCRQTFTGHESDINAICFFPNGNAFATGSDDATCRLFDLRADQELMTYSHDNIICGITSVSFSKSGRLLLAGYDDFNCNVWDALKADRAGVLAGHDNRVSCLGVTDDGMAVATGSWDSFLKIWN
T1 sequence (P59768 with tags, fused parts or gaps partner limits assumed): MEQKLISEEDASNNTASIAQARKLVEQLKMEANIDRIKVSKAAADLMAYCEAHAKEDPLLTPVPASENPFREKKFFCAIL

In turn, `O=C1NCC2=C1[C@@H](c1cccc3ccoc13)N(C(=O)C1CC1)[C@@H]1CCCC[C@H]1N2` [Compound 5] returned an EC50 in the test with isolated adipocytes of 1000 nM. As for `NCCOCCOc1ccccc1[C@@H]1C2=C(CNC2=O)N[C@@H]2CCCC[C@H]2N1C(=O)CCc1ccccn1` [Compound 7], the “inhibitory activity against the binding of the 3H-labeled Compound 1 to the HLF cell membrane” value in the test with HLF cell membrane is on record as “equal to Compound 2”.

As to `O=C1NCC2=C1[C@@H](c1csc3ccccc13)N(C(=O)CCc1ccccn1)[C@@H]1CCCC[C@H]1N2` [Compound 4], the EC50 with isolated adipocytes amounted to 6 nM.

Compound `COc1ccccc1[C@@H]1C2=C(CNC2=O)N[C@@H]2CCCC[C@H]2N1C(=O)CCc1nccs1` [Compound 3] displayed a 50% effective concentration (EC50) with isolated adipocytes of 14 nM. Further, the “binding to Gβ1γ2-Myc (inhibition of 3H-labeled Compound 1 binding)” value on Gβ1γ2-Myc is “could be bound to the Gβγ2-Myc”.

For `Cc1ccccc1Oc1cccc2c(=O)cc(N3CCOCC3)[nH]c12` [TGX-115], the “inhibition of Akt phosphorylation by Compound 6” value in test [1] is listed as “clearly inhibited”.

A word on the EC50: it is the concentration that produces a half-maximal response. A high value points to weaker potency.

Source of the values: US9440980B2, “Remedy for diabetes” (EA Pharma Co., Ltd., priority 2007, dated 2016).
